From patent US12059433B2, “Treatment for autistic spectrum disorder (ASD) and relevant symptoms” (ACADEMIA SINICA, priority 2019, dated 2024)

Experiments:
CTTNBP2 M120I mice = assay: Reciprocal social interaction (RSI) test, M120I mutant mice; type: in vivo, mouse; settings: for social interaction in RSI, single supplement: CTTNBP2 M120I mice, individually provided: zinc (20 ppm), BCAA (0.225%), serine (0.5%)
Description: Before RSI, mice were individually isolated for at least a week. For the experiment, an unfamiliar adult mouse was put into the home cage of the test mouse for 10 min. The lid of the cage was removed during the entire session. Mouse behaviors were recorded by videotaping from above. The total time a test mouse spent interacting with and gently sniffing the unfamiliar mouse was manually recorded. Aggressive behavior was not assessed.
A supplement or supplement mixture was prepared by mixing a zinc ion source, a serine component and/or BCAAs at various concentrations in drinking water for behavior analyses.
We tested three different ASD mouse models, i.e. Nf1+/−, Tbr1+/−, and Cttnbp2 M120I mice. Before taking supplement, mice were subjected to the first reciprocal social interaction test. After taking supplement for 7 days, mice were analyzed again using reciprocal social interaction to evaluate the effect of nutritional supplementation.

[1] = zinc supplementation in drinking water, experimental period
Cttnbp2−/− mice = assay: Reciprocal social interaction (RSI) test, Cttnbp2−/− mice; type: in vivo, mouse
Description: (§1) Mouse behaviors were recorded by videotaping from above. […] Aggressive behavior was not assessed. […] The zinc concentrations were normalized by protein amounts. […] The first trial was performed before zinc supplementation. […] Reciprocal social interaction trials were performed as described above. To analyze the effect of D-cycloserine (DCS, ab120121, Abcam) on social behaviors of Cttnbp2 mutant mice, adult mice (˜8 weeks old) were first habituated to handling by subjecting them to an open field with or without inanimate objects. Mice were then isolated until ˜10 weeks old for reciprocal social interaction trials. During isolation, mice were habituated to intraperitoneal injection, which effectively reduces their anxiety response to intraperitoneal injection during the experimental period. On day 1 of the experiment, saline control (0.9% of NaCl) was intraperitoneally injected into the test animal 30 min before a reciprocal social interaction trial, conducted as described above. On day 2 of the experiment, D-cycloserine solution (2 mg/kg in 0.9% of NaCl) was intraperitoneally injected into mice 30 min before a reciprocal social interaction trial.

[2] = tested on: synaptic proteins and glutamate receptors in synaptosomal fractions of Cttnbp2−/− mouse brains; settings: 40 ppm zinc in drinking water for 7 days vs regular water
Description: One hemisphere of the forebrains from adult mice (˜8-weeks-old) were isolated and homogenized using a tissue dounce homogenizer with a loose pestle in 1 ml sucrose buffer [50 mM Tris-Cl pH 7.4, 320 mM sucrose, 2 mM DTT, 2 μg/ml leupeptin, 2 μg/ml pepstatin-A, 2 μg/ml aproteinin, 2 mM PMSF, 2 μg/ml MG132]. An aliquot of 50 μl of total homogenate was kept. The remainder of the total homogenate was centrifuged twice at 800×g for 10 min at 4° C. The supernatant was centrifuged at 9200×g for 15 min to collect the pellet as a crude synaptosomal fraction. The protein concentrations of total homogenates and synaptosomal fractions were determined by Bradford assay (Bio-Rad Protein Assay Dye Reagent Concentrate, Cat #5000006). Synaptosomal protein samples were then analyzed with LC-MS-MS and immunoblotting.
To validate CTTNBP2 expression in knockout mice, adult mouse brain (˜8 weeks old) samples were homogenized in RIPA buffer. After 30 min, debris was removed by centrifugation (13000 rpm in a microcentrifuge for 20 min). The supernatants were collected and protein amounts were determined by Bio-Rad Protein Assay Dye Reagent Concentrate. Protein samples were denatured by 2× sample buffer and boiled for 10 min. Five μg of protein samples were separated by SDS-PAGE and then transferred to PVDF membrane. Membranes were blocked using blocking buffer [5% skim milk and 0.1% Tween-20 in PBS] for 30 min and hybridized with primary antibodies. In principle, primary antibody was added into blocking buffer and hybridized with the membrane overnight at 4° C. or for 3 hr at room temperature. Horseradish peroxidase-conjugated goat anti-mouse, rabbit, or guinea pig secondary antibodies were used to detect primary antibody and were visualized using a Western Lightening Plus ECL system (PerkinElmer).
(§2) The concentration of zinc in the mouse chow (5K54, LabDiet) provided in our animal facility is 84 ppm. To increase the zinc intake to ˜150 ppm, mice were provided with ZnSO4 (Z0251, Sigma-Aldrich) in drinking water at a concentration of 40 ppm, which is based on daily consumption of ˜5 ml water and 2.5 g chow by each mouse. To study the expression of synaptic proteins after zinc supplementation, adult mice (˜8 weeks old) were fed with zinc-supplemented water or normal drinking water as control for 7 days and then sacrificed for synaptosomal analysis as described above. To validate the zinc levels in brain, zinc quantification kit (ab102597, Abcam) was used according to manufacturer's instruction. The zinc concentrations were normalized by protein amounts. To study the effect of zinc supplementation on social behavior of Cttnbp2 deletion and mutant mice, three consecutive trials of reciprocal social interaction were performed at intervals of 7 days (FIG. 8C). The first trial was performed before zinc supplementation. After the first trial, mice were provided with zinc-supplemented water (40 ppm) for 7 days and then subjected to the second trial. After the second trial, zinc-supplemented water was replaced with normal drinking water for 7 days and mice then underwent the third trial. Reciprocal social interaction trials were performed as described above.

wild-type mice = settings: 40 ppm zinc in drinking water for 7 days
Description: as §2

[3] = Cttnbp2−/− mice; 40 ppm zinc in drinking water for 7 days vs regular water
Description: as §2

CTTNBP2 R533* mice = assay: Reciprocal social interaction (RSI) test, R533* mutant mice; type: in vivo, mouse
Description: as §1

Tbr1+/− mice = settings: cited from earlier work; for behavioral defects and autism-like behaviors: refs [49, 50, 51]
Shank2−/− mice = settings: previous studies [35-38]; cited from earlier work

## N[C@@H](CO)C(=O)O [serine, L-Serine]
CTTNBP2 M120I mice
  social interaction in RSI, single supplement: did not improve

## O.O.O.O.O.O.O.O=S(=O)([O-])[O-].[Zn+2] [zinc, Zinc sulfate heptahydrate]
[1]
  body weight: nor did it alter
  volumes of water drunk daily: nor did it alter
Cttnbp2−/− mice; 7 days after discontinuing zinc supplementation, vs second RSI test
  social interaction, third RSI test: reduced
Cttnbp2−/− mice; after 40 ppm zinc in drinking water for 7 days, vs first RSI test
  time interacting with the unfamiliar mouse, second RSI test: spent significantly longer interacting with the unfamiliar mouse
CTTNBP2 M120I mice
  social interaction in RSI, single supplement: did not improve
[2]
  GRIN1 expression level in synaptosomal fractions: increased
  GRIN2B expression level in synaptosomal fractions: increased
  MOB4 expression level in synaptosomal fractions: increased
  RAC3 expression level in synaptosomal fractions: increased
  SHANK2 expression level in synaptosomal fractions: increased
  SHANK3 expression level in synaptosomal fractions: increased
  STRN expression level in synaptosomal fractions: increased
  cortactin expression level in synaptosomal fractions: increased
  levels of GRIA1 in synaptosomal fractions: not noticeably altered
  levels of GRIA2 in synaptosomal fractions: not noticeably altered
  synaptic levels of DPYSL3: reduced
wild-type mice
  social behaviors in RSI tests: did not noticeably influence
[3]
  concentration of zinc in brains: increase
CTTNBP2 R533* mice; R533* mice, 7 days after discontinuing zinc supplementation, vs second RSI test
  social interaction, third RSI test: tended to be lowered, but it was not statistically different from those of the second RSI
CTTNBP2 R533* mice; R533* mice, after 40 ppm zinc in drinking water for 7 days, vs first RSI test
  time interacting with the unfamiliar mouse, second RSI test: spent significantly longer interacting with the unfamiliar mouse

## N[C@@H]1CONC1=O [D-cycloserine, (4R)-4-amino-1,2-oxazolidin-3-one, reference compound]
Cttnbp2−/− mice; 2 mg/kg intraperitoneally 30 min before RSI, vs saline control
  social interaction behavior in RSI test: increased social interaction behavior
CTTNBP2 M120I mice; M120I mutant mice, 2 mg/kg intraperitoneally 30 min before RSI, vs saline
  social interaction behaviors in RSI test: improved
Tbr1+/− mice; previous studies [35-38]
  social behaviors: improves
Tbr1+/− mice
  behavioral defects and autism-like behaviors: ameliorate the behavioral defects and improve autism-like behaviors
Shank2−/− mice
  social behaviors: improves
CTTNBP2 R533* mice; R533* mutant mice, 2 mg/kg intraperitoneally 30 min before RSI, vs saline
  social interaction behaviors in RSI test: improved

## Oc1c(I)cc(Cl)c2cccnc12 [clioquinol]
Tbr1+/− mice
  behavioral defects and autism-like behaviors: ameliorate the behavioral defects and improve autism-like behaviors
